Measured values published in ChEMBL document CHEMBL1201862, “PubChem BioAssay data set” (2004).
Values joined by “and” are separate entries in the source; they are usually repeats but may differ in a detail not shown here. Equal entries are not always repeated. Active and inactive are the calls of the source.

Key:
[1] = target: Dual specificity tyrosine-phosphorylation-regulated kinase 1A (Rattus norvegicus, UniProt Q63470); type: biochemical, Homo sapiens
[2] = tested on: Vero; experiment: Vero cell cytotoxicity, cytotoxicity control for flavivirus capping enzyme inhibitors (AID 588742); type: functional; conditions: Chlorocebus sabaeus
[3] = target: T1, Polyadenylate-binding protein 1 (Homo sapiens, UniProt P11940); experiment: PABP1 MLLE–PAM2 interaction inhibitors, dose response, miRNA deadenylation inhibitor project, biochemical, fluorescence polarization, Cy5-PAM2 peptide, secondary (AID 602260); type: functional; conditions: read-out: IC50_Mean
T1 sequence (P11940 whole entry): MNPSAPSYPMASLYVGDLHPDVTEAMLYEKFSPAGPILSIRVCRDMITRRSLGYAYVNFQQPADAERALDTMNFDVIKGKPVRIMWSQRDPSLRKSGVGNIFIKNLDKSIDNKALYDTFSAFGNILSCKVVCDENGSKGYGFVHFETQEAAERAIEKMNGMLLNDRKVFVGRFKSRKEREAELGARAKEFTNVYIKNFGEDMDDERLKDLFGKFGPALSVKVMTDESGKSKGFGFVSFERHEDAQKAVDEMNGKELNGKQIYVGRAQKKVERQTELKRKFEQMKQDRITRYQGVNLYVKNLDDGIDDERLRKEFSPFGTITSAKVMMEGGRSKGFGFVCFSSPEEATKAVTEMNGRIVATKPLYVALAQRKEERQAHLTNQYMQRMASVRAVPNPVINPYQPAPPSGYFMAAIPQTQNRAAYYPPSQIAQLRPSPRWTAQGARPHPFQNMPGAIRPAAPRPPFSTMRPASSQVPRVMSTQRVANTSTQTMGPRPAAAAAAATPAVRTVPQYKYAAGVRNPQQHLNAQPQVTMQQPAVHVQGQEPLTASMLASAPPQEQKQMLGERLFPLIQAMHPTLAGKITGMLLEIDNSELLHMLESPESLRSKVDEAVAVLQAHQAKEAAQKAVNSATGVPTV

[4] = target: T1, Polyadenylate-binding protein 1; experiment: PABP1 MLLE–PAM2 binding inhibitor potency, dose response, biochemical, fluorescence polarization, FITC-PAM2 peptide (AID 602259); type: functional; conditions: read-out: IC50_Mean
[5] = tested on: Vero; experiment: cells; type: functional, cell-based; conditions: Chlorocebus sabaeus
[6] = cells
[7] = target: Cytochrome P450 2C19 (Homo sapiens, UniProt P33261); experiment: Cytochrome panel assay with activity outcomes. Panel member name: p450-cyp2c19 Compounds with AC50 equal or less than 10 uM are considered active; type: functional; conditions: read-out: AC50
[8] = target: T2, Cytochrome P450 1A2 (Homo sapiens, UniProt P05177);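 note: PubChem cytochrome P450 panel assay, CYP1A2 panel member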
T2 sequence (P05177 whole entry): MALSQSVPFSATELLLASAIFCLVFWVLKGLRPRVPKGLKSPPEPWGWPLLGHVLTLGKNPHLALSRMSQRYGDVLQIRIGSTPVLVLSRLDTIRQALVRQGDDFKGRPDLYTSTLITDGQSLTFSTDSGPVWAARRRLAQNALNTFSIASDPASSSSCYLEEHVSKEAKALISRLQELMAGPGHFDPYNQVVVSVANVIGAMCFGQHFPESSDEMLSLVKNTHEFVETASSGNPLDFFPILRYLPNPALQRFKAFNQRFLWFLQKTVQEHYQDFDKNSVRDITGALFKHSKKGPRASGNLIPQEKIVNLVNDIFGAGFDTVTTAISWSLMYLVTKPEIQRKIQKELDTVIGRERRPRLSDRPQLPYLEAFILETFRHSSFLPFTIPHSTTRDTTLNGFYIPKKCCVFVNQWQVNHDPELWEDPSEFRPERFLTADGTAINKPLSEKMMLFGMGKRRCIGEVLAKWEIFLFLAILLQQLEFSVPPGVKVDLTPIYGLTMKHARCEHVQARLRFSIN

[9] = target: Cytochrome P450 2D6 (Homo sapiens, UniProt P10635);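 note: CYP2D6 member of a cytochrome P450 panel assay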
[10] = tested on: Vero; experiment: cells; type: functional; conditions: Chlorocebus sabaeus
[11] = target: Aurora kinase B (Homo sapiens, UniProt Q96GD4); type: functional
Sequence of Aurora kinase B (Q96GD4 whole entry): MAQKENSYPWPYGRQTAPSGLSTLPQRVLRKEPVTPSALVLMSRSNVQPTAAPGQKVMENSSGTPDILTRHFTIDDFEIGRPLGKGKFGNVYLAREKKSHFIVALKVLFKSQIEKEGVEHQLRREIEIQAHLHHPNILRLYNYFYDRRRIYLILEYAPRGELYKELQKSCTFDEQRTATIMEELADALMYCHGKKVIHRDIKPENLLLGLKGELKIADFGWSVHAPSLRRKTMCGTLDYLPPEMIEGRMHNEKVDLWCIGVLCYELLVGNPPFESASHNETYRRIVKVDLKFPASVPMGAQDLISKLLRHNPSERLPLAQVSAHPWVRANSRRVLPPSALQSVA

[12] = target: T3, Aurora kinase A (Homo sapiens, UniProt O14965); type: functional;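 note: value from the Navigating the Kinome kinase panel profiling, panel entry STK6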
T3 sequence (O14965 whole entry): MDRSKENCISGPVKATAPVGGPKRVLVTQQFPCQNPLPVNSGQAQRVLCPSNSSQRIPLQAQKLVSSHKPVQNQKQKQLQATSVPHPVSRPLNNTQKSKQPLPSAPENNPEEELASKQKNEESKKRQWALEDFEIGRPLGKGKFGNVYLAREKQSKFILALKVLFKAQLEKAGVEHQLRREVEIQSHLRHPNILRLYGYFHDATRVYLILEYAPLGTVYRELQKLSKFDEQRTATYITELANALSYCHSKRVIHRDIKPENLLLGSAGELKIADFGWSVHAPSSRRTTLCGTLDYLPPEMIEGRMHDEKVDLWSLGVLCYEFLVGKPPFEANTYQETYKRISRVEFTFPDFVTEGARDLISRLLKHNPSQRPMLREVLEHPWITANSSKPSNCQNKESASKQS

[13] = target: Vascular endothelial growth factor receptor 2 (Homo sapiens, UniProt P35968); type: functional
Sequence of Vascular endothelial growth factor receptor 2 (P35968 whole entry): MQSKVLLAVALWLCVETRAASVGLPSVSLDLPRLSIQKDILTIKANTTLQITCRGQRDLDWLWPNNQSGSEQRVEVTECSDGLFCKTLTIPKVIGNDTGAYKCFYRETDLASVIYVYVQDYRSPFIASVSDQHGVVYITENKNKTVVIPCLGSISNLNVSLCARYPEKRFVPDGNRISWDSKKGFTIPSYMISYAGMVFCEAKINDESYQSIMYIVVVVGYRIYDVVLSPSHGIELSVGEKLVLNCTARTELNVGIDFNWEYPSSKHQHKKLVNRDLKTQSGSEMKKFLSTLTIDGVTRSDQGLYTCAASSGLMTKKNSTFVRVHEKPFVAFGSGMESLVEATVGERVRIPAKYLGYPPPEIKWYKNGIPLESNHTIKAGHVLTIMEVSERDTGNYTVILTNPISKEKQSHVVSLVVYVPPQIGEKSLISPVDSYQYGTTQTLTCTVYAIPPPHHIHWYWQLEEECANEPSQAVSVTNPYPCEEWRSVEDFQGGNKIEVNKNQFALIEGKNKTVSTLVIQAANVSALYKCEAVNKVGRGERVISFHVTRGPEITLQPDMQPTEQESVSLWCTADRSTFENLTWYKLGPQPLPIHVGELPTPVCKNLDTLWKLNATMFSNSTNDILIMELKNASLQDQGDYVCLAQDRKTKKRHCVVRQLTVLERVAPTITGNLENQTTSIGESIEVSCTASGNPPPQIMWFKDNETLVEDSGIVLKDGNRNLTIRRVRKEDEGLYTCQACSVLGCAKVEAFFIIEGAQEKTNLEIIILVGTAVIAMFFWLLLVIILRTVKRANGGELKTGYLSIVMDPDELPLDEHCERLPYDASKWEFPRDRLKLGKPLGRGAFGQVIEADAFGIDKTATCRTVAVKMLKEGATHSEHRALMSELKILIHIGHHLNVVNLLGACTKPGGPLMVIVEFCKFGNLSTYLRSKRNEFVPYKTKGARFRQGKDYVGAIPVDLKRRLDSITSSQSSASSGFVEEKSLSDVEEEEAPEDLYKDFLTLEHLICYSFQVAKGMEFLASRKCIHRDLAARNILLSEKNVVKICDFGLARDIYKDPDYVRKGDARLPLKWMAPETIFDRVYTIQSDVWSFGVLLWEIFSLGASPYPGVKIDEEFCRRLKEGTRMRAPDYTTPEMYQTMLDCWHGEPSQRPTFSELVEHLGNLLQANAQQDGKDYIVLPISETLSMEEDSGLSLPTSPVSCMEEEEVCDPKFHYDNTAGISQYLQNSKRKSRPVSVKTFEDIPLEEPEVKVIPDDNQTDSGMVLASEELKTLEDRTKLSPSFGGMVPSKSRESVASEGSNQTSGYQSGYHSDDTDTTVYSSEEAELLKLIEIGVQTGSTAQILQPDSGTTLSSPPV

[14] = tested on: Streptococcus; experiment: Group A Streptococcus viability loss, dose response, counter-screen for streptokinase expression inhibitor project, luminescence, BacTiterGlo (AID 1915); type: functional, organism-based;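 note: potency for reduction of bacterial viability or growth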
[15] = target: Induced myeloid leukemia cell differentiation protein Mcl-1 (Homo sapiens, UniProt Q07820); type: functional
[16] = tested on: HeLa; experiment: HeLa cell cytotoxicity, dose response, cytotoxicity control for MITF activator project, CellTiter-Glo luminescence, cherry-pick samples (AID 540259); type: functional, cell-based; conditions: Homo sapiens
[17] = tested on: Streptococcus sp. 'group A'; experiment: growth inhibition of control SK(-) GAS strain, dose response, counter-screen for streptokinase expression inhibitor project, luminescence, kanamycin, BacTiterGlo, confirmation (AID 1900); type: functional, organism-based
[18] = target: T4, Streptokinase A (Streptococcus pyogenes serotype M1, UniProt P10520); experiment: S. pyogenes streptokinase expression inhibitors, potency, dose response, plasminogen activation absorbance, OD405 (AID 1914); type: functional, Streptococcus pyogenes M1 GAS;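 note: secreted streptokinase activity via plasminogen activation per viability signal from cell pellet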
T4 sequence (P10520 whole entry): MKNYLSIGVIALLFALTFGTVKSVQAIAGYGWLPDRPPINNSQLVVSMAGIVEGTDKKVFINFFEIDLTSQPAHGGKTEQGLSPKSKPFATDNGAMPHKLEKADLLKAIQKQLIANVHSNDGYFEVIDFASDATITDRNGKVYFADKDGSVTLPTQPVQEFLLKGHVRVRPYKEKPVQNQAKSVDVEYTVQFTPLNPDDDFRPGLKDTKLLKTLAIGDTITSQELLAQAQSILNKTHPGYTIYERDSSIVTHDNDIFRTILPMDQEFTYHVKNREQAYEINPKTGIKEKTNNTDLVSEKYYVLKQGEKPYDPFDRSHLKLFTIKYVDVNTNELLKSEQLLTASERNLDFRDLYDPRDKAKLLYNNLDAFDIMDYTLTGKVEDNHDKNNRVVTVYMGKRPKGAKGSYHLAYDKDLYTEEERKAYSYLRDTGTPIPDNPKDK

[19] = target: T5, Fatty acid synthase (Homo sapiens, UniProt P49327); experiment: FAS thioesterase domain inhibitors, dose response, biochemical, endpoint fluorescence intensity, uHTS hits (AID 624327); type: functional;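 note: fluorescence from hydrolysis of an O-methyl fluorescein acyl ester substrate by the enzyme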
T5 sequence (P49327 whole entry, the tested form may be a part): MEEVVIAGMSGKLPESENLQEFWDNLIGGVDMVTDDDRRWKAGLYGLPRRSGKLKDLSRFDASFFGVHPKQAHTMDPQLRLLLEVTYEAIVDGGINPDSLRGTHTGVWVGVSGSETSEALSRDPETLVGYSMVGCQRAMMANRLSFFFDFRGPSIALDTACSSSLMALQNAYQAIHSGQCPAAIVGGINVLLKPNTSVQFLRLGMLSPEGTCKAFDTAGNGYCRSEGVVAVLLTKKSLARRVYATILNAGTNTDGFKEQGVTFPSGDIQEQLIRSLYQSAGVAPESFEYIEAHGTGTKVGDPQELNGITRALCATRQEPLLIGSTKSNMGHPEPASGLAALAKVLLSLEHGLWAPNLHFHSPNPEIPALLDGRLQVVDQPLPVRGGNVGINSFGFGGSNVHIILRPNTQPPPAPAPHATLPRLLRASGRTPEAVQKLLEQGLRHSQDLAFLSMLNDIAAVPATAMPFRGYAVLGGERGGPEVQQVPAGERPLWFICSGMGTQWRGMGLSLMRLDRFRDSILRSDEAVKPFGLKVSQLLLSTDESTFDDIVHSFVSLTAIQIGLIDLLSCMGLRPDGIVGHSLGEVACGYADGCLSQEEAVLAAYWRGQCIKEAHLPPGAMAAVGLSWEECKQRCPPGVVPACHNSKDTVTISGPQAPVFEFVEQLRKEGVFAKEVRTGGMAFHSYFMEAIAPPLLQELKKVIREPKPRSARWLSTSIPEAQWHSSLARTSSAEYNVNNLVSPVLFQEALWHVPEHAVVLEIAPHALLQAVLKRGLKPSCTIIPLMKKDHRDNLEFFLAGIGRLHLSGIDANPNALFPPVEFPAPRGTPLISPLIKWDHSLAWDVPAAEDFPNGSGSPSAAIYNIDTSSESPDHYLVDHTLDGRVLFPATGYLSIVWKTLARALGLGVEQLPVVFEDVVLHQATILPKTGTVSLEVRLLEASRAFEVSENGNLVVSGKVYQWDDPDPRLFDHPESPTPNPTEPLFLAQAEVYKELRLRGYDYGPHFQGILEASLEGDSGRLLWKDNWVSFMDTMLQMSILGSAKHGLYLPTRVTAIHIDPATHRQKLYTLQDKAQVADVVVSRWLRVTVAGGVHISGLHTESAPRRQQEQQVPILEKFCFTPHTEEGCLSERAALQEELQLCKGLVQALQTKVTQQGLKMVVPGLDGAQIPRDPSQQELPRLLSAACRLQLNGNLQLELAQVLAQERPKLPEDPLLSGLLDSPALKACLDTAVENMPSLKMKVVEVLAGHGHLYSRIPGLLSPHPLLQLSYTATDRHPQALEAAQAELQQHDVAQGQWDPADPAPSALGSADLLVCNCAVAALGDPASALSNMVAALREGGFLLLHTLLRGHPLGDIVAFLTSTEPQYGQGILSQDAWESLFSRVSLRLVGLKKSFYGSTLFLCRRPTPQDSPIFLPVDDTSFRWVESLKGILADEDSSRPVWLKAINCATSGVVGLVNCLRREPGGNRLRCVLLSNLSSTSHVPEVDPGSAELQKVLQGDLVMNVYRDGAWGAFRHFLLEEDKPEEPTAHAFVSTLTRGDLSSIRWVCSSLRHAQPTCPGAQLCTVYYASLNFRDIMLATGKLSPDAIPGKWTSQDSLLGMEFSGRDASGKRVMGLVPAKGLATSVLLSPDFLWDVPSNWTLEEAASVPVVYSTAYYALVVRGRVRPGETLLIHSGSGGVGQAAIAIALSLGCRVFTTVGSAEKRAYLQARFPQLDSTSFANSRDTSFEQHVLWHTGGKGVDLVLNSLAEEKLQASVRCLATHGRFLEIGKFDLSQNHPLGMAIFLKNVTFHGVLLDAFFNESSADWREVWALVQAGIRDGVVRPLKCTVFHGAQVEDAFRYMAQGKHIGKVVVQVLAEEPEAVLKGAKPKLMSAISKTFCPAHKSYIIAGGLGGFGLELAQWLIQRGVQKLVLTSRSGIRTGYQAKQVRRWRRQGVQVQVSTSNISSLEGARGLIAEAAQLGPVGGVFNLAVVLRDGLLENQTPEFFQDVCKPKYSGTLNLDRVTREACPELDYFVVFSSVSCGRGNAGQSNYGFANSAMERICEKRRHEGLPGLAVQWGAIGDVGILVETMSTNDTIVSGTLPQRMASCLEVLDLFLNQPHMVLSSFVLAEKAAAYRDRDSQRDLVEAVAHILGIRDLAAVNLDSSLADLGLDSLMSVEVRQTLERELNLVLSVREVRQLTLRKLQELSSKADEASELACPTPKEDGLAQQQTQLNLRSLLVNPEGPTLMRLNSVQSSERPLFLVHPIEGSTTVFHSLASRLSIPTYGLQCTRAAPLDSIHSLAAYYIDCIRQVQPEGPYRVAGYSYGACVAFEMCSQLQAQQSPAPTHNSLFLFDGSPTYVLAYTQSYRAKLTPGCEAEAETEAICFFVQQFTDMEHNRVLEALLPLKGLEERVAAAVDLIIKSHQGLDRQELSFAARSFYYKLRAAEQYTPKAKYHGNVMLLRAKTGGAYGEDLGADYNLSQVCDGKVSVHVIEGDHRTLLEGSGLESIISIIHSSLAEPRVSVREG

[20] = target: FAD-linked sulfhydryl oxidase ALR (Homo sapiens, UniProt P55789); experiment: inhibitors of human ALR sulfhydryl oxidase, dose response, biochemical, H2O2 detection, luminescence, cherry-pick (AID 493248)
Sequence of FAD-linked sulfhydryl oxidase ALR (P55789 whole entry, the tested form may be a part): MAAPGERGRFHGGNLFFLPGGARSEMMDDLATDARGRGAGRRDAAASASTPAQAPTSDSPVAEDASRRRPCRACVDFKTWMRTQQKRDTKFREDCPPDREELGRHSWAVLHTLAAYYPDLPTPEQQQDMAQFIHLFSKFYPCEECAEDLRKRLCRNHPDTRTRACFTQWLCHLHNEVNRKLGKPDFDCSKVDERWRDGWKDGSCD

[21] = target: T5, Fatty acid synthase; experiment: FAS thioesterase domain inhibitors, dose response, biochemical, kinetic fluorescence intensity (AID 624326); type: functional;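 note: rate of fluorescence rise from hydrolysis of a fluorogenic O-methyl fluorescein ester substrate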

Fc1ccccc1N=C(S)Nc1cccc2cnccc12
AC50 [1]: 5.56 µM (active) | CC50 [2]: > 40 µM (active) | IC50 [3]: > 66 µM (inactive) | IC50 [4]: > 66 µM (inactive)

Cc1ccc(-c2nc(CCN3C(=O)c4ccccc4C3=O)cs2)cc1
IC50 [5]: > 25 µM (active) | IC50 [6]: 47.1 µM (active)

COCCCNC(=O)C1CCC(=O)N1Cc1ccccc1Cl (stereo not drawn)
AC50 [7]: 22.4 µM (inconclusive) | AC50 [8]: inconclusive | AC50 [9]: 25.1 µM (inconclusive)

COC(=O)[C@@]1(Cc2ccc(F)cc2)[C@H]2c3cc(C(=O)N(C)C)n(Cc4cc(F)c(F)c(F)c4)c3C[C@H]2CN1C(=O)c1ccccc1
AC50 [8]: inconclusive

CN(C)CC1CCC/C(=C\c2ccc(OC(=O)/C=C/c3ccc(Cl)c(Cl)c3)cc2)C1=O (stereo not drawn)
CC50 [10]: 11.5 µM (active) | IC50 [5]: > 25 µM (active)

COc1cccc(S(=O)(=O)Nc2ccc3c(c2)C(=NO)c2ccccc2-3)c1
Ki [11]: 6.31 nM (active) and 15.8 nM (active) | Ki [12]: > 2 µM (inactive) and 2 µM (active) | Ki [13]: 3.98 µM (active) and 794 nM (active)

C/C(=N\Nc1ccc(C(=O)O)cc1)c1ccc2c(c1)Nc1ccccc1S2
EC50 [14]: 7.08 µM (active) | IC50 [15]: 36 µM (active) | AC50 [16]: 48.5 µM (active) | EC50 [17]: 3.9 µM (active) | EC50 [18]: > 150 µM (not active) | IC50 [19]: 11.7 µM (active) | AC50 [20]: 0.013 µM (active) | IC50 [21]: 6.48 µM (active)
